Experiments:
[1] = molecular target: Receptor-interacting serine/threonine-protein kinase 2 (Homo sapiens, UniProt O43353); assay: Binding affinity to RIPK2 (unknown origin) assessed as dissociation constant by kinomescan assay
THP-1 = assay: Antiinflammatory activity in MDP-stimulated IL-8 production in human THP-1 cells pretreated for 2 hrs followed by MDP stimulation for 6 hrs; format: functional, cell-based
[2] = Metabolic stability in human liver microsomes assessed as half life; format: ADME
[3] = Metabolic stability in rat liver microsomes assessed as half life; format: ADME
[4] = Metabolic stability in mouse liver microsomes assessed as half life; format: ADME
[5] = Metabolic stability in dog liver microsomes assessed as half life; format: ADME, Canis lupus familiaris
[6] = Metabolic stability in monkey liver microsomes assessed as half life; format: ADME, Macaca mulatta; settings: rhesus monkey
[7] = Metabolic stability in human liver microsomes assessed as intrinsic clearance; format: ADME; settings: read-out: CLH
[8] = Metabolic stability in rat liver microsomes assessed as intrinsic clearance; format: ADME; settings: read-out: CLH
[9] = Metabolic stability in mouse liver microsomes assessed as intrinsic clearance; format: ADME; settings: read-out: CLH
[10] = Metabolic stability in dog liver microsomes assessed as intrinsic clearance; format: ADME, Canis lupus familiaris; settings: read-out: CLH
[11] = Metabolic stability in monkey liver microsomes assessed as intrinsic clearance; format: ADME, Macaca mulatta; settings: rhesus monkey, read-out: CLH
CYP1A2 = molecular target: T1, CYP1A2 (Homo sapiens, UniProt P05177); assay: Inhibition of CYP1A2 (unknown origin) at 10 uM relative to control; format: ADME
T1 sequence (P05177 whole entry): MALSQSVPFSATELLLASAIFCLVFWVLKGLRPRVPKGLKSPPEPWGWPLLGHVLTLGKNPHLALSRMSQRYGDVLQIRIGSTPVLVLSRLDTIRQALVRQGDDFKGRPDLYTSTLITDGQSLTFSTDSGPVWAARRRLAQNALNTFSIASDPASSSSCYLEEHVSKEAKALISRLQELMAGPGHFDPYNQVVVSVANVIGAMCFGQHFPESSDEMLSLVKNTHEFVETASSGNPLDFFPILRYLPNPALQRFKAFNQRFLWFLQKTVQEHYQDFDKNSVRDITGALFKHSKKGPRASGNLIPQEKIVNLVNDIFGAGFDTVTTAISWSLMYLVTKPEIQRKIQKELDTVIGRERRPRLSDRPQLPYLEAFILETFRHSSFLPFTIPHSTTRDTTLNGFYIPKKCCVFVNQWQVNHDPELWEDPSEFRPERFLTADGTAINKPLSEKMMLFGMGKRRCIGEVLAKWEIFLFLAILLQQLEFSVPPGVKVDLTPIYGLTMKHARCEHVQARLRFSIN

CYP2C9 = CYP2C9 (Homo sapiens, UniProt P11712); assay: Inhibition of CYP2C9 (unknown origin) at 10 uM relative to control; format: ADME
CYP2C19 = CYP2C19 (Homo sapiens, UniProt P33261); assay: Inhibition of CYP2C19 (unknown origin) at 10 uM relative to control; format: ADME
CYP2D6 = CYP2D6 (Homo sapiens, UniProt P10635); assay: Inhibition of CYP2D6 (unknown origin) at 10 uM relative to control; format: ADME
CYP3A4 [12] = molecular target: T2, CYP3A4 (Homo sapiens, UniProt P08684); assay: Inhibition of CYP3A4 (unknown origin) at 10 uM using midazolam as substrate relative to control; format: ADME; settings: probe midazolam
CYP3A4 [13] = molecular target: T2, CYP3A4; assay: Inhibition of CYP3A4 (unknown origin) at 10 uM using testosterone as substrate relative to control; format: ADME; settings: probe testosterone
[14] = molecular target: Voltage-gated inwardly rectifying potassium channel KCNH2 (Homo sapiens, UniProt Q12809); assay: Inhibition of hERG; format: toxicity
[15] = molecular target: T3, Receptor-interacting serine/threonine-protein kinase 1 (Homo sapiens, UniProt Q13546); assay: Binding affinity to RIPK1 (unknown origin) assessed as dissociation constant by kinomescan assay
T3 sequence (Q13546 whole entry): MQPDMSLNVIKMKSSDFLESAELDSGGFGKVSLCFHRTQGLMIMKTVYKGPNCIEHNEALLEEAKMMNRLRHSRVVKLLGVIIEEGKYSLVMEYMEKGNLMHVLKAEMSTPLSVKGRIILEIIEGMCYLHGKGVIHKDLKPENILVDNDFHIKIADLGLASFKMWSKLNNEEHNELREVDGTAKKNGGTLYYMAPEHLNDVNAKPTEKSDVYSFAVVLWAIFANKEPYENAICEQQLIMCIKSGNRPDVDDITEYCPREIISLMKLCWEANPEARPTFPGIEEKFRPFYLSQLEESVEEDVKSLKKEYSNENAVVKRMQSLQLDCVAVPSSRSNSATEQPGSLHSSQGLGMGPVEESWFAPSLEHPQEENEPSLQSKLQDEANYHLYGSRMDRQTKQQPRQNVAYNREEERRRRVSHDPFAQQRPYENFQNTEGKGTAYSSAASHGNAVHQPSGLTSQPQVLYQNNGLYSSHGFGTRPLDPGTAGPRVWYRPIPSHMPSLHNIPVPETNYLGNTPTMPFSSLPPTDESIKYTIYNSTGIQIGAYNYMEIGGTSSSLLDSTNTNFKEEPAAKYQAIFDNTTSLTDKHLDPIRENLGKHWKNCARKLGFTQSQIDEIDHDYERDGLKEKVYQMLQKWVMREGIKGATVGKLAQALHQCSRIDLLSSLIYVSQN

[16] = molecular target: Receptor-interacting serine/threonine-protein kinase 3 (Homo sapiens, UniProt Q9Y572); assay: Binding affinity to RIPK3 (unknown origin) assessed as dissociation constant by kinomescan assay
Sequence of Receptor-interacting serine/threonine-protein kinase 3 (Q9Y572 whole entry): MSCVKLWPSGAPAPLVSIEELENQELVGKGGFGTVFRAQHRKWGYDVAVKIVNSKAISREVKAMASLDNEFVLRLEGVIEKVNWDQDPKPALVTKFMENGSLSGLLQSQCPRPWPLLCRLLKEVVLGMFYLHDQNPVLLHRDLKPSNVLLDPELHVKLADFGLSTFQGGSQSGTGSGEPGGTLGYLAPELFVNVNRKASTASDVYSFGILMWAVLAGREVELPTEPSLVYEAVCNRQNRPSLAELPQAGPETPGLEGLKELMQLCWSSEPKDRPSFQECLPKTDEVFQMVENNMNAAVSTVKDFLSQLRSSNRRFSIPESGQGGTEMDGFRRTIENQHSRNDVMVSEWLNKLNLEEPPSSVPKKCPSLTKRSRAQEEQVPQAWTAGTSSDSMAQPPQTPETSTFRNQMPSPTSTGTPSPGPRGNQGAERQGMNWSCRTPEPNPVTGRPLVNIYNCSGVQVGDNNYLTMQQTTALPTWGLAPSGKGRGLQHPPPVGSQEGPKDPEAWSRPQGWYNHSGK

Sequence of Receptor-interacting serine/threonine-protein kinase 2 (O43353 whole entry): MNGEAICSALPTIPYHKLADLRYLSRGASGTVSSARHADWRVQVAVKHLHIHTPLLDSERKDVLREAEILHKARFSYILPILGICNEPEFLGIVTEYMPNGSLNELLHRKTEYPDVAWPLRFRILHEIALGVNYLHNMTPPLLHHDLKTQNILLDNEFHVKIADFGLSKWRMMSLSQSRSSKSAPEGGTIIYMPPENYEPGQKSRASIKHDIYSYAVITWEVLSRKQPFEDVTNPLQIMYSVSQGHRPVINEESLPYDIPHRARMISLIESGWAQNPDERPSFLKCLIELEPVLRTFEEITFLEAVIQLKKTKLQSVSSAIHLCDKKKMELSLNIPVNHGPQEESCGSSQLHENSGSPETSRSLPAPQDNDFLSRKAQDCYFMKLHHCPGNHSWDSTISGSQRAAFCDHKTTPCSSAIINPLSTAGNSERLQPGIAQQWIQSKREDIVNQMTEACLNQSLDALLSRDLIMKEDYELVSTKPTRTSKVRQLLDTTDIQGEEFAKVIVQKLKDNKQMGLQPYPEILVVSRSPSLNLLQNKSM
T2 sequence (P08684 whole entry): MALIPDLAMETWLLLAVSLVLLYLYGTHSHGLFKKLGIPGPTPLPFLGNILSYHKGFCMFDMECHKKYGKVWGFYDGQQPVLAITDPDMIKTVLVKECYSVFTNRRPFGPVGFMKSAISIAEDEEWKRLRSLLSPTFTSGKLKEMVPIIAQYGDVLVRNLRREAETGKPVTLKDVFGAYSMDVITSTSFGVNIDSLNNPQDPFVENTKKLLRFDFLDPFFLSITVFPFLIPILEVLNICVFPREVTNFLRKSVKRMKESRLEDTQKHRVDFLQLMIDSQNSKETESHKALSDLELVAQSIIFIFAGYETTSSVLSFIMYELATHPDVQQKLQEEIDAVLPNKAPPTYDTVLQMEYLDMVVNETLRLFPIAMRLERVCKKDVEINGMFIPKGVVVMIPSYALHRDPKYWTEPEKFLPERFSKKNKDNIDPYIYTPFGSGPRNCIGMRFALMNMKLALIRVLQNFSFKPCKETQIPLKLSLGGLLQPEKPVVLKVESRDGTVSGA
Sequence of CYP2C9 (P11712 whole entry): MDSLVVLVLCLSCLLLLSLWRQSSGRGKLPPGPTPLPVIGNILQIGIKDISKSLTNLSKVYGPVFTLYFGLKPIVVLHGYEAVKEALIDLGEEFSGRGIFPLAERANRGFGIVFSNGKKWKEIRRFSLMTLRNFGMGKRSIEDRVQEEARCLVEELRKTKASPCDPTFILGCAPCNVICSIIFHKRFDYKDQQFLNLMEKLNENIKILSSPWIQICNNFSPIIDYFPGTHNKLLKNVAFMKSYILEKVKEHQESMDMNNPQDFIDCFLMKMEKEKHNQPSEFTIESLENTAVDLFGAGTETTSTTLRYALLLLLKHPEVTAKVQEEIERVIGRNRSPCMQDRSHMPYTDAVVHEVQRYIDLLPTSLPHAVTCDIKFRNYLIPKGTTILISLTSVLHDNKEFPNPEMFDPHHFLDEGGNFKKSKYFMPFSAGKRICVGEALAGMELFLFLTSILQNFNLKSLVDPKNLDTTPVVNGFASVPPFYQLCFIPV
Sequence of CYP2C19 (P33261 whole entry): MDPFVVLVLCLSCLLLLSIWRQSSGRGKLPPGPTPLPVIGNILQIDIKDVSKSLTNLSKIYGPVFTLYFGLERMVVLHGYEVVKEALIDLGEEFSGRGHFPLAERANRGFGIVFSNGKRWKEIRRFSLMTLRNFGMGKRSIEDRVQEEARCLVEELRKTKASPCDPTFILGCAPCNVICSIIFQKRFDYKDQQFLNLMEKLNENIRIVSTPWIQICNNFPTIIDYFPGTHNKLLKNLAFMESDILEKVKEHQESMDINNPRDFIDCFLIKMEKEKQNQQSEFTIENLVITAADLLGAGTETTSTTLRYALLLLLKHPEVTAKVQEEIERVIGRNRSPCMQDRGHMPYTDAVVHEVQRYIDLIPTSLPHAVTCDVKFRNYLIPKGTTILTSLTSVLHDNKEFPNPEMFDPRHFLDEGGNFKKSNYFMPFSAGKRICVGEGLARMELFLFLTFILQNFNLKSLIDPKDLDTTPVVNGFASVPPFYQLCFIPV
Sequence of CYP2D6 (P10635 whole entry): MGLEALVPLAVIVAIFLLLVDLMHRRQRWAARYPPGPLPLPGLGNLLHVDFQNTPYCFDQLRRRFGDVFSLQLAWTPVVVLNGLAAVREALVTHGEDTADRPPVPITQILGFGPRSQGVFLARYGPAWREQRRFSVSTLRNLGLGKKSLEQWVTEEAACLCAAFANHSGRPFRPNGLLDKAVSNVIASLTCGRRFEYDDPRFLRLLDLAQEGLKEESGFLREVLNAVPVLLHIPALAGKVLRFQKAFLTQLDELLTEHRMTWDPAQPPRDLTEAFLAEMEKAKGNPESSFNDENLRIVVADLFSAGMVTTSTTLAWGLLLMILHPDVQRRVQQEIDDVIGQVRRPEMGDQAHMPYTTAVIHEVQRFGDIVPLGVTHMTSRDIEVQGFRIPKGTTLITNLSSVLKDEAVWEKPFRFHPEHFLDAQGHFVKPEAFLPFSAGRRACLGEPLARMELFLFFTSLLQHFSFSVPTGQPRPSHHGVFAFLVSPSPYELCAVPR
Sequence of Voltage-gated inwardly rectifying potassium channel KCNH2 (Q12809 whole entry): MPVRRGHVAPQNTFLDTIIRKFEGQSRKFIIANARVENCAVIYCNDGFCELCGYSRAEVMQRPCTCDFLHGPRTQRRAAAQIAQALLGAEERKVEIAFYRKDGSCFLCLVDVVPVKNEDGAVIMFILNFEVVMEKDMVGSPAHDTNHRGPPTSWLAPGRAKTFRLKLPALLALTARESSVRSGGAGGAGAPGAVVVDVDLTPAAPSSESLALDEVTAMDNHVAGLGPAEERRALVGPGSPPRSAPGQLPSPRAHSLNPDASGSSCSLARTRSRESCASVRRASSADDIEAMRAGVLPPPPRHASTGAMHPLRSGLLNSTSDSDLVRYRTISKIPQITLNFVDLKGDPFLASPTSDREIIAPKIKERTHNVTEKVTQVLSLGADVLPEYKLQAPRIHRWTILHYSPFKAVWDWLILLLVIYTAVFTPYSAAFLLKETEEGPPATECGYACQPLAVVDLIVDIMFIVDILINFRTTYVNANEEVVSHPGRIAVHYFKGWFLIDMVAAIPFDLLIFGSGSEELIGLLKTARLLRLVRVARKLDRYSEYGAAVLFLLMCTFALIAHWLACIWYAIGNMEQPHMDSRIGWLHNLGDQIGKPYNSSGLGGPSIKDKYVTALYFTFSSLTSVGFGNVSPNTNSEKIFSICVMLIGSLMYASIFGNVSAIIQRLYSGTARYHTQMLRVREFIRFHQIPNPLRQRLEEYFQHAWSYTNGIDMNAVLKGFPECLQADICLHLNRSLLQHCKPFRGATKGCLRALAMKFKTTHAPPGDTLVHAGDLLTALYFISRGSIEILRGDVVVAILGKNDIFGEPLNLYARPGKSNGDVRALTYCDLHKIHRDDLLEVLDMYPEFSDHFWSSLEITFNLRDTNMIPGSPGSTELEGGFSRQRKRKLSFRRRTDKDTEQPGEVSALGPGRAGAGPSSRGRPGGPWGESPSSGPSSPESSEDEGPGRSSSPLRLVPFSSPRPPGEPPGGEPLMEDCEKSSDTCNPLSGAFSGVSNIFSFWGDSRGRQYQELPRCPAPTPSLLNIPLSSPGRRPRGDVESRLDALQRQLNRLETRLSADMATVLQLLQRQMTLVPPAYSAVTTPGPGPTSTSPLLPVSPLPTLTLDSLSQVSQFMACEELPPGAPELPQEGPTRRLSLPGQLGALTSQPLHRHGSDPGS

CC(C)(C)S(=O)(=O)c1cc2c(Nc3ccc4scnc4c3)ncnc2cc1OCCOP(=O)(O)O
Kd [1]: 0.78 nM
IC50 (THP-1): 1.34 nM

CCOC1=CS(=O)(=O)c2cc3c(Nc4ccc5scnc5c4)ncnc3cc21
Kd [1]: 5.9 nM
half-life [2]: 189 min
half-life [3]: 142 min
half-life [4]: 62.7 min
half-life [5]: 25.9 min
half-life [6]: 38 min
CLint scaled [7]: 9.19 mL/min/kg
CLint scaled [8]: 17.5 mL/min/kg
CLint scaled [9]: 87 mL/min/kg
CLint scaled [10]: 133 mL/min/kg
CLint scaled [11]: 53.3 mL/min/kg
inhibition at 10 µM (CYP1A2): 18.1%
inhibition at 10 µM (CYP2C9): 10.7%
inhibition at 10 µM (CYP2C19): 16.6%
inhibition at 10 µM (CYP2D6): -23.2%
inhibition at 10 µM (CYP3A4 [12]): 0%
inhibition at 10 µM (CYP3A4 [13]): -0.93%
IC50 [14]: > 10000 nM
IC50 (THP-1): 1.99 nM
Kd [15]: > 30000 nM
Kd [16]: 43 nM

COC1=CS(=O)(=O)c2cc3c(Nc4ccc5scnc5c4)ncnc3cc21
Kd [1]: 27 nM

CC1=C(C)S(=O)(=O)c2cc3c(Nc4ccc5scnc5c4)ncnc3cc21
Kd [1]: 8.2 nM
half-life [2]: 53 min
half-life [3]: 59 min
half-life [4]: 23.7 min
half-life [5]: 4.61 min
half-life [6]: 20.9 min
CLint scaled [7]: 32.8 mL/min/kg
CLint scaled [8]: 42.1 mL/min/kg
CLint scaled [9]: 230 mL/min/kg
CLint scaled [10]: 749 mL/min/kg
CLint scaled [11]: 97 mL/min/kg
inhibition at 10 µM (CYP1A2): 14.9%
inhibition at 10 µM (CYP2C9): -1.42%
inhibition at 10 µM (CYP2C19): 11.5%
inhibition at 10 µM (CYP2D6): -15.7%
inhibition at 10 µM (CYP3A4 [12]): -3.32%
inhibition at 10 µM (CYP3A4 [13]): 6.88%

CC1=CS(=O)(=O)c2cc3c(Nc4ccc5scnc5c4)ncnc3cc21
Kd [1]: 14 nM

CC1=Cc2cc3ncnc(Nc4ccc5scnc5c4)c3cc2S1(=O)=O
Kd [1]: 55 nM

O=S1(=O)C=C(C2CC2)c2cc3ncnc(Nc4ccc5nc[nH]c5c4)c3cc21
Kd [1]: 325 nM

O=S1(=O)C=C(C2CC2)c2cc3ncnc(Nc4cc(O)ccc4F)c3cc21
Kd [1]: 14 nM

O=S1(=O)C=C(C2CC2)c2cc3ncnc(Nc4n[nH]c5ccc(F)cc45)c3cc21
Kd [1]: 10 nM

O=S1(=O)C=C(c2ccc(F)cc2)c2cc3ncnc(Nc4ccc5scnc5c4)c3cc21
Kd [1]: 545 nM

O=S1(=O)C=C(C2CC2)c2cc3ncnc(Nc4ccc5scnc5c4)c3cc21
Kd [1]: 3.3 nM
half-life [2]: 64.3 min
half-life [3]: 61 min
half-life [4]: 15.9 min
half-life [5]: 10.8 min
half-life [6]: 28.5 min
CLint scaled [7]: 27 mL/min/kg
CLint scaled [8]: 40.8 mL/min/kg
CLint scaled [9]: 344 mL/min/kg
CLint scaled [10]: 320 mL/min/kg
CLint scaled [11]: 71 mL/min/kg
inhibition at 10 µM (CYP1A2): 19.9%
inhibition at 10 µM (CYP2C9): 11.9%
inhibition at 10 µM (CYP2C19): 40.6%
inhibition at 10 µM (CYP2D6): -13.6%
inhibition at 10 µM (CYP3A4 [12]): 14.9%
inhibition at 10 µM (CYP3A4 [13]): 14.3%

O=S1(=O)C=C(c2ccccc2)c2cc3ncnc(Nc4ccc5scnc5c4)c3cc21
Kd [1]: 109 nM

Cc1[nH]nc(Nc2ncnc3cc4c(cc23)S(=O)(=O)C=C4C2CC2)c1C
Kd [1]: 10 nM

O=S1(=O)C=C(C2CC2)c2cc3ncnc(Nc4ccc5nn[nH]c5c4)c3cc21
Kd [1]: 10 nM

CCOC1=C(C)S(=O)(=O)c2cc3c(Nc4ccc5scnc5c4)ncnc3cc21
Kd [1]: 24 nM

Cc1ccc(O)cc1Nc1ncnc2cc3c(cc12)S(=O)(=O)C=C3C1CC1
Kd [1]: 70 nM

O=S1(=O)C=C(C2CC2)c2cc3ncnc(Nc4ccc5cc[nH]c5c4)c3cc21
Kd [1]: 1200 nM

CC1=Cc2cc3nc(C)nc(Nc4ccc5scnc5c4)c3cc2S1(=O)=O
Kd [1]: 685 nM

Source: ChEMBL document CHEMBL5223112, “Design, synthesis, and structure-activity relationship of novel RIPK2 inhibitors” (Bioorg Med Chem Lett, 2022)
